In the NIST ThermoML archive (doi:10.1016/j.jct.2017.06.001):
Numbers after ± are expanded uncertainties.

Test: xn = mol fraction of the nth substance listed
Conditions: 100 kPa, Liquid; for mass density: Vibrating tube method; for speed of sound: 288.15 K, Frequency=5 MHz, Pulse-echo method

## OCCCCCO [1,5-pentanediol] + O
278.15 K, x1 = 0.005
  mass density: 999.89 ± 0.53 kg/m3
278.15 K, x1 = 0.0101
  mass density: 1000.22 ± 1 kg/m3
278.15 K, x1 = 0.0196
  mass density: 1001.39 ± 1 kg/m3
278.15 K, x1 = 0.0251
  mass density: 1002.34 ± 1 kg/m3
278.15 K, x1 = 0.0304
  mass density: 1003.39 ± 1 kg/m3
278.15 K, x1 = 0.05
  mass density: 1006.63 ± 1 kg/m3
278.15 K, x1 = 0.0769
  mass density: 1009.88 ± 1.1 kg/m3
278.15 K, x1 = 0.1002
  mass density: 1012.01 ± 1.1 kg/m3
278.15 K, x1 = 0.1438
  mass density: 1013.87 ± 1.1 kg/m3
278.15 K, x1 = 0.1845
  mass density: 1014.45 ± 1.1 kg/m3
278.15 K, x1 = 0.2503
  mass density: 1014 ± 1.2 kg/m3
278.15 K, x1 = 0.3
  mass density: 1013.14 ± 1.2 kg/m3
278.15 K, x1 = 0.3343
  mass density: 1012.59 ± 1.3 kg/m3
278.15 K, x1 = 0.4171
  mass density: 1010.69 ± 1.4 kg/m3
278.15 K, x1 = 0.454
  mass density: 1009.8 ± 1.4 kg/m3
278.15 K, x1 = 0.5003
  mass density: 1008.7 ± 1.5 kg/m3
278.15 K, x1 = 0.5362
  mass density: 1007.8 ± 1.5 kg/m3
278.15 K, x1 = 0.6177
  mass density: 1006 ± 1.7 kg/m3
278.15 K, x1 = 0.6478
  mass density: 1005.3 ± 1.7 kg/m3
278.15 K, x1 = 0.7025
  mass density: 1004.2 ± 1.8 kg/m3
278.15 K, x1 = 0.7504
  mass density: 1003.3 ± 1.9 kg/m3
278.15 K, x1 = 0.7927
  mass density: 1002.5 ± 2 kg/m3
278.15 K, x1 = 0.8605
  mass density: 1001.1 ± 2.1 kg/m3
278.15 K, x1 = 0.9004
  mass density: 1000.2 ± 2.2 kg/m3
278.15 K, x1 = 0.9496
  mass density: 999.1 ± 2.3 kg/m3
278.15 K, x1 = 1
  mass density: 998 ± 2.1 kg/m3
283.15 K, x1 = 0.005
  mass density: 999.55 ± 0.53 kg/m3
283.15 K, x1 = 0.0101
  mass density: 999.78 ± 1 kg/m3
283.15 K, x1 = 0.0196
  mass density: 1000.73 ± 1 kg/m3
283.15 K, x1 = 0.0251
  mass density: 1001.54 ± 1 kg/m3
283.15 K, x1 = 0.0304
  mass density: 1002.41 ± 1 kg/m3
283.15 K, x1 = 0.05
  mass density: 1005.19 ± 1 kg/m3
283.15 K, x1 = 0.0769
  mass density: 1007.89 ± 1.1 kg/m3
283.15 K, x1 = 0.1002
  mass density: 1009.64 ± 1.1 kg/m3
283.15 K, x1 = 0.1438
  mass density: 1011.18 ± 1.1 kg/m3
283.15 K, x1 = 0.1845
  mass density: 1011.58 ± 1.1 kg/m3
283.15 K, x1 = 0.2503
  mass density: 1010.96 ± 1.2 kg/m3
283.15 K, x1 = 0.3
  mass density: 1010.06 ± 1.2 kg/m3
283.15 K, x1 = 0.3343
  mass density: 1009.43 ± 1.3 kg/m3
283.15 K, x1 = 0.4171
  mass density: 1007.58 ± 1.4 kg/m3
283.15 K, x1 = 0.454
  mass density: 1006.71 ± 1.4 kg/m3
283.15 K, x1 = 0.5003
  mass density: 1005.6 ± 1.5 kg/m3
283.15 K, x1 = 0.5362
  mass density: 1004.7 ± 1.5 kg/m3
283.15 K, x1 = 0.6177
  mass density: 1003 ± 1.7 kg/m3
283.15 K, x1 = 0.6478
  mass density: 1002.3 ± 1.7 kg/m3
283.15 K, x1 = 0.7025
  mass density: 1001.2 ± 1.8 kg/m3
283.15 K, x1 = 0.7504
  mass density: 1000.3 ± 1.9 kg/m3
283.15 K, x1 = 0.7927
  mass density: 999.4 ± 2 kg/m3
283.15 K, x1 = 0.8605
  mass density: 998.1 ± 2.1 kg/m3
283.15 K, x1 = 0.9004
  mass density: 997.3 ± 2.2 kg/m3
283.15 K, x1 = 0.9496
  mass density: 996.1 ± 2.3 kg/m3
283.15 K, x1 = 1
  mass density: 995 ± 2.1 kg/m3
x1 = 0.0001
  speed of sound: 1467 ± 1.1 m/s
x1 = 0.0002
  speed of sound: 1467.6 ± 1.1 m/s
x1 = 0.0004
  speed of sound: 1468.5 ± 1.1 m/s
x1 = 0.0007
  speed of sound: 1469.7 ± 1.1 m/s
x1 = 0.001
  speed of sound: 1471.1 ± 1.1 m/s
x1 = 0.0013
  speed of sound: 1472.4 ± 1.1 m/s
x1 = 0.0018
  speed of sound: 1474.5 ± 1.1 m/s
x1 = 0.0025
  speed of sound: 1477.3 ± 1.1 m/s
x1 = 0.0032
  speed of sound: 1480.3 ± 1.1 m/s
x1 = 0.0039
  speed of sound: 1483.3 ± 1.1 m/s
x1 = 0.0047
  speed of sound: 1486.5 ± 1.1 m/s
x1 = 0.0053
  speed of sound: 1489.1 ± 1.1 m/s
x1 = 0.0059
  speed of sound: 1491.7 ± 1.1 m/s
x1 = 0.0066
  speed of sound: 1494.6 ± 1.1 m/s
x1 = 0.0074
  speed of sound: 1497.4 ± 1.1 m/s
x1 = 0.0079
  speed of sound: 1499.7 ± 1.1 m/s
x1 = 0.0086
  speed of sound: 1502.2 ± 1.1 m/s
x1 = 0.0092
  speed of sound: 1504.6 ± 1.1 m/s
x1 = 0.0098
  speed of sound: 1507 ± 1.1 m/s
x1 = 0.0105
  speed of sound: 1509.5 ± 1.1 m/s
x1 = 0.0112
  speed of sound: 1512 ± 1.2 m/s
x1 = 0.0118
  speed of sound: 1514.3 ± 1.2 m/s
x1 = 0.0125
  speed of sound: 1516.8 ± 1.2 m/s
x1 = 0.0131
  speed of sound: 1519 ± 1.2 m/s
x1 = 0.0138
  speed of sound: 1521.4 ± 1.2 m/s
x1 = 0.0144
  speed of sound: 1523.8 ± 1.2 m/s
x1 = 0.0151
  speed of sound: 1526.1 ± 1.2 m/s
x1 = 0.0157
  speed of sound: 1528.2 ± 1.2 m/s
x1 = 0.0164
  speed of sound: 1530.5 ± 1.2 m/s
x1 = 0.0171
  speed of sound: 1532.7 ± 1.2 m/s
x1 = 0.0177
  speed of sound: 1535 ± 1.2 m/s
x1 = 0.0184
  speed of sound: 1537.1 ± 1.2 m/s
x1 = 0.0188
  speed of sound: 1538.3 ± 1.2 m/s
x1 = 0.0193
  speed of sound: 1540.1 ± 1.2 m/s
x1 = 0.0199
  speed of sound: 1541.8 ± 1.2 m/s
x1 = 0.0204
  speed of sound: 1543.6 ± 1.2 m/s
x1 = 0.021
  speed of sound: 1545.5 ± 1.2 m/s
x1 = 0.0219
  speed of sound: 1548.2 ± 1.2 m/s
x1 = 0.0226
  speed of sound: 1550.3 ± 1.2 m/s
x1 = 0.0233
  speed of sound: 1552.4 ± 1.2 m/s
x1 = 0.024
  speed of sound: 1554.5 ± 1.2 m/s
x1 = 0.0247
  speed of sound: 1556.6 ± 1.2 m/s
x1 = 0.0256
  speed of sound: 1559.3 ± 1.2 m/s
x1 = 0.0266
  speed of sound: 1562.2 ± 1.2 m/s
x1 = 0.0278
  speed of sound: 1565.4 ± 1.2 m/s
x1 = 0.0289
  speed of sound: 1568.3 ± 1.2 m/s
x1 = 0.0299
  speed of sound: 1571 ± 1.2 m/s
x1 = 0.0309
  speed of sound: 1573.7 ± 1.2 m/s
x1 = 0.0319
  speed of sound: 1576.4 ± 1.2 m/s
x1 = 0.0331
  speed of sound: 1579.3 ± 1.2 m/s
x1 = 0.0342
  speed of sound: 1582.3 ± 1.2 m/s
x1 = 0.0353
  speed of sound: 1584.9 ± 1.2 m/s
x1 = 0.0365
  speed of sound: 1587.7 ± 1.2 m/s
x1 = 0.0376
  speed of sound: 1590.3 ± 1.2 m/s
x1 = 0.0387
  speed of sound: 1592.9 ± 1.2 m/s
x1 = 0.0398
  speed of sound: 1595.3 ± 1.2 m/s
x1 = 0.0409
  speed of sound: 1597.9 ± 1.2 m/s
x1 = 0.042
  speed of sound: 1600.2 ± 1.2 m/s
x1 = 0.0431
  speed of sound: 1602.6 ± 1.2 m/s
x1 = 0.0445
  speed of sound: 1605.6 ± 1.2 m/s
x1 = 0.0456
  speed of sound: 1607.8 ± 1.2 m/s
x1 = 0.0473
  speed of sound: 1611.2 ± 1.2 m/s
x1 = 0.0482
  speed of sound: 1612.9 ± 1.2 m/s
x1 = 0.049
  speed of sound: 1614.5 ± 1.2 m/s
x1 = 0.0499
  speed of sound: 1616.2 ± 1.2 m/s
x1 = 0.0513
  speed of sound: 1618.7 ± 1.2 m/s
x1 = 0.0529
  speed of sound: 1621.5 ± 1.2 m/s
x1 = 0.0547
  speed of sound: 1624.7 ± 1.2 m/s
x1 = 0.0561
  speed of sound: 1627.2 ± 1.2 m/s
x1 = 0.0576
  speed of sound: 1629.6 ± 1.2 m/s
x1 = 0.0595
  speed of sound: 1632.6 ± 1.2 m/s
x1 = 0.0613
  speed of sound: 1635.3 ± 1.2 m/s
x1 = 0.0632
  speed of sound: 1638.1 ± 1.2 m/s
x1 = 0.0654
  speed of sound: 1641.4 ± 1.2 m/s
x1 = 0.0673
  speed of sound: 1644 ± 1.2 m/s
x1 = 0.0692
  speed of sound: 1646.6 ± 1.2 m/s
x1 = 0.0715
  speed of sound: 1649.5 ± 1.2 m/s
x1 = 0.0744
  speed of sound: 1653 ± 1.2 m/s
x1 = 0.0768
  speed of sound: 1655.8 ± 1.2 m/s
x1 = 0.0796
  speed of sound: 1658.9 ± 1.2 m/s
x1 = 0.0824
  speed of sound: 1661.8 ± 1.2 m/s
x1 = 0.0856
  speed of sound: 1665 ± 1.2 m/s
x1 = 0.0887
  speed of sound: 1667.9 ± 1.2 m/s
x1 = 0.0921
  speed of sound: 1670.8 ± 1.2 m/s
x1 = 0.0965
  speed of sound: 1674.4 ± 1.2 m/s
x1 = 0.1006
  speed of sound: 1677.4 ± 1.2 m/s
x1 = 0.1051
  speed of sound: 1680.5 ± 1.2 m/s
x1 = 0.1102
  speed of sound: 1683.6 ± 1.2 m/s
x1 = 0.1153
  speed of sound: 1686.5 ± 1.2 m/s
x1 = 0.1208
  speed of sound: 1689.2 ± 1.2 m/s
x1 = 0.1238
  speed of sound: 1690.6 ± 1.2 m/s
x1 = 0.1303
  speed of sound: 1693.2 ± 1.2 m/s
x1 = 0.1382
  speed of sound: 1696 ± 1.3 m/s
x1 = 0.1442
  speed of sound: 1697.7 ± 1.3 m/s
x1 = 0.1503
  speed of sound: 1699.3 ± 1.3 m/s
x1 = 0.1556
  speed of sound: 1700.5 ± 1.3 m/s
x1 = 0.1612
  speed of sound: 1701.6 ± 1.3 m/s
x1 = 0.167
  speed of sound: 1702.6 ± 1.3 m/s
x1 = 0.1694
  speed of sound: 1703 ± 1.3 m/s
x1 = 0.1748
  speed of sound: 1703.7 ± 1.3 m/s
x1 = 0.1799
  speed of sound: 1704.3 ± 1.3 m/s
x1 = 0.1852
  speed of sound: 1704.8 ± 1.3 m/s
x1 = 0.1903
  speed of sound: 1705.2 ± 1.3 m/s
x1 = 0.1955
  speed of sound: 1705.6 ± 1.3 m/s
x1 = 0.2007
  speed of sound: 1705.9 ± 1.3 m/s
x1 = 0.2046
  speed of sound: 1706 ± 1.3 m/s
